Laboratory results reported in the SangsterLogP compilation.

assay: method code SF-HPLC, from DOI: 10.1002/ps.2780400103

Row | SMILES | logP
1 | CC(C)(C)C(COc1ccc(-c2ccccc2)cc1)OC(=S)n1ccnc1 (configuration not stated) | 6.06
2 | CCOc1ccc(OCC(OC(=S)n2ccnc2)C(C)(C)C)cc1 (configuration not stated) | 4.58
3 | CC(C)(C)C(COc1ccc(-c2ccccc2)cc1)OC(=O)n1ccnc1 (configuration not stated) | 4.56
4 | CC(C)(C)C(COc1ccccc1)OC(=S)n1ccnc1 (configuration not stated) | 4.27
5 | CCCc1ccc(OCC(OC(=S)n2ccnc2)C(C)(C)C)cc1 (configuration not stated) | 5.77
6 | CC(C)(C)C(COc1ccc(Br)cc1)OC(=S)n1ccnc1 (configuration not stated) | 5.11
7 | CCc1ccc(OCC(OC(=S)n2ccnc2)C(C)(C)C)cc1 (configuration not stated) | 5.09
8 | CCCCc1ccc(OCC(OC(=O)n2ccnc2)C(C)(C)C)cc1 (configuration not stated) | 4.97
9 | COc1ccc(OCC(OC(=S)n2ccnc2)C(C)(C)C)cc1 (configuration not stated) | 4.31
10 | COC(=O)c1ccc(OCC(OC(=S)n2ccnc2)C(C)(C)C)cc1 (configuration not stated) | 4.77
11 | CCCOc1ccc(OCC(OC(=O)n2ccnc2)C(C)(C)C)cc1 (configuration not stated) | 4.1
12 | CCCOc1ccc(OCC(OC(=S)n2ccnc2)C(C)(C)C)cc1 (configuration not stated) | 5.03
13 | CC(C)c1ccc(OCC(OC(=S)n2ccnc2)C(C)(C)C)cc1 (configuration not stated) | 5.21
14 | CC(C)(C)C(COc1ccc(F)cc1)OC(=S)n1ccnc1 (configuration not stated) | 4.37
15 | Cc1ccc(OCC(OC(=S)n2ccnc2)C(C)(C)C)cc1 (configuration not stated) | 4.66
16 | CC(C)(C)C(COc1ccc(Cl)cc1)OC(=S)n1ccnc1 (configuration not stated) | 4.96
17 | CCCCCc1ccc(OCC(OC(=O)n2ccnc2)C(C)(C)C)cc1 (configuration not stated) | 5.26
18 | CC(C)(C)C(COc1ccc(C(F)(F)F)cc1)OC(=O)n1ccnc1 (configuration not stated) | 4.15
19 | CC(C)Oc1ccc(OCC(OC(=O)n2ccnc2)C(C)(C)C)cc1 (configuration not stated) | 4.08
20 | CC(C)(C)C(COc1ccccc1)OC(=O)n1ccnc1 (configuration not stated) | 3.58
21 | CCOC(=O)c1ccc(OCC(OC(=O)n2ccnc2)C(C)(C)C)cc1 (configuration not stated) | 4.12
22 | CCCCOc1ccc(OCC(OC(=O)n2ccnc2)C(C)(C)C)cc1 (configuration not stated) | 4.29

Further lines, results first:

Row | logP | SMILES
23 | 4.73 | CCCc1ccc(OCC(OC(=O)n2ccnc2)C(C)(C)C)cc1 (configuration not stated)
24 | 3.86 | CCOc1ccc(OCC(OC(=O)n2ccnc2)C(C)(C)C)cc1 (configuration not stated)
25 | 4.82 | CC(C)(C)c1ccc(OCC(OC(=O)n2ccnc2)C(C)(C)C)cc1 (configuration not stated)
26 | 3.15 | CC(C)(C)C(COc1ccc(C#N)cc1)OC(=O)n1ccnc1 (configuration not stated)
27 | 4.19 | CC(C)(C)C(COc1ccc(Cl)cc1)OC(=O)n1ccnc1 (configuration not stated)
28 | 4.37 | CC(C)(C)C(COc1ccc(Br)cc1)OC(=O)n1ccnc1 (configuration not stated)
29 | 4.03 | CSc1ccc(OCC(OC(=O)n2ccnc2)C(C)(C)C)cc1 (configuration not stated)
30 | 4.77 | CC(C)c1ccc(OCC(OC(=O)n2ccnc2)C(C)(C)C)cc1 (configuration not stated)
31 | 3.68 | CC(C)(C)C(COc1ccc(F)cc1)OC(=O)n1ccnc1 (configuration not stated)
32 | 2.59 | CC(C)(C)C(COc1ccc(S(C)(=O)=O)cc1)OC(=O)n1ccnc1 (configuration not stated)
33 | 3.35 | CC(C)(C)C(COc1ccc([N+](=O)[O-])cc1)OC(=O)n1ccnc1 (configuration not stated)
34 | 4.3 | CC(C)(C)C(COc1ccc(I)cc1)OC(=O)n1ccnc1 (configuration not stated)
35 | 3.59 | COC(=O)c1ccc(OCC(OC(=O)n2ccnc2)C(C)(C)C)cc1 (configuration not stated)
36 | 4.1 | CCc1ccc(OCC(OC(=O)n2ccnc2)C(C)(C)C)cc1 (configuration not stated)
37 | 3.46 | COc1ccc(OCC(OC(=O)n2ccnc2)C(C)(C)C)cc1 (configuration not stated)
